For 12 compounds, T/C results are on record in PubChem BioAssay AID212 (DTP/NCI, 2004).

The test system of this test is BDF1 mice, colon carcinoma 38 sc, T/C %. In words: NCI In Vivo Anticancer Drug Screen. Data for tumor model Colon Carcinoma 38 (subcutaneous) in B6D2F1 (BDF1) mice. As to conditions: endpoint: median tumor weight (est.), higher = larger tumour. The procedure, abridged:
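Compound antitumor activity was assessed in mice carrying transplantable tumors. Survival or tumor size was recorded, and each value is the treated-group measurement divided by that of the vehicle-treated control group.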

The mark [1] stands for this setting: dose: 25.0 mg/kg/injection, schedule: Q07DX002 (ip), vehicle: saline with Tween-80.
Setting [2] is: dose: 50.0 mg/kg/injection, schedule: Q07DX002 (ip), vehicle: saline with Tween-80.
Where [3] appears, read: dose: 100.0 mg/kg/injection, schedule: Q07DX002 (ip), vehicle: saline with Tween-80.
[4] abbreviates: dose: 50.0 mg/kg/injection, schedule: Q07DX003 (ip), vehicle: saline.
The mark [5] stands for this setting: dose: 200.0 mg/kg/injection, schedule: Q07DX002 (ip), vehicle: saline with Tween-80.

“And” between values parts separate entries of the source, which are not always exact repeats. Equal values may be shown once. Records with an inconclusive call do not appear.

Turning to `C#CCNC1=C(C)C(=O)C2=C(C1=O)[C@H](COC(N)=O)[C@]1(OC)[C@@H]3N[C@@H]3CN21`, the T/C was 49 % of control (dose: 1.5 mg/kg/injection, schedule: Q07DX002 (ip), vehicle: distilled water + Tween-80); 78 % of control (dose: 3.0 mg/kg/injection, schedule: Q07DX002 (ip), vehicle: distilled water + Tween-80); 20 % of control (dose: 6.0 mg/kg/injection, schedule: Q07DX002 (ip), vehicle: distilled water + Tween-80).

Turning to `OCC1OC(n2cnc3cc(Cl)c(Cl)cc32)C(O)C1O` (centres undefined), the T/C reads like this: (dose: 12.5 mg/kg/injection, schedule: Q07DX002 (ip), vehicle: saline with Tween-80) 101 % of control; under setting [1], 98 % of control; under setting [2], 105 % of control; under setting [3], 98 % of control.

For `CN1CCN(c2ccc([N+](=O)[O-])c3no[n+]([O-])c23)CC1`, the T/C by setting is: (dose: 5.0 mg/kg/injection, schedule: Q07DX002 (ip), vehicle: saline with Tween-80) 105 % of control; (dose: 20.0 mg/kg/injection, schedule: Q07DX002 (ip), vehicle: saline with Tween-80) 77 % of control; (dose: 40.0 mg/kg/injection, schedule: Q07DX002 (ip), vehicle: saline with Tween-80) 68 % of control.

`ClCC[N+]12CC[N+](CCCl)(CC1)C2`: the T/C reads like this: (dose: 12.5 mg/kg/injection, schedule: Q07DX002 (ip), vehicle: saline) 115 % of control and 123 % of control; (dose: 12.5 mg/kg/injection, schedule: Q07DX003 (ip), vehicle: saline) 56 % of control; (dose: 12.5 mg/kg/injection, schedule: Q07DX003 (ip), vehicle: water) 84 % of control; (dose: 25.0 mg/kg/injection, schedule: Q07DX003 (ip), vehicle: saline) 65 % of control; (dose: 25.0 mg/kg/injection, schedule: Q07DX003 (ip), vehicle: water) 78 % of control; under setting [4], 72 % of control. For the same compound, the T/C reads like this: (dose: 50.0 mg/kg/injection, schedule: Q07DX003 (ip), vehicle: water) 44 % of control; (dose: 100.0 mg/kg/injection, schedule: Q07DX003 (ip), vehicle: saline) 123 % of control; (dose: 100.0 mg/kg/injection, schedule: Q07DX003 (ip), vehicle: water) 45 % of control; (dose: 200.0 mg/kg/injection, schedule: Q07DX003 (ip), vehicle: saline) 70 % of control; (dose: 400.0 mg/kg/injection, schedule: Q07DX002 (ip), vehicle: saline) 47 % of control and 52 % of control; (dose: 400.0 mg/kg/injection, schedule: Q07DX003 (ip), vehicle: saline) 115 % of control.

For `O=CN(SSN(C=O)C1CCCCC1)C1CCCCC1`, the T/C by setting is: under setting [1], 98 % of control and 99 % of control; under setting [2], 77 % of control and 78 % of control; under setting [5], 113 % of control and 98 % of control.

For `[N-]=[N+]=CC(=O)CCC(N)C(=O)O` (centres undefined), the T/C is 57 % of control (dose: 0.78 mg/kg/injection, schedule: Q07DX003 (ip), vehicle: saline); 48 % of control (dose: 1.56 mg/kg/injection, schedule: Q07DX003 (ip), vehicle: saline); 73 % of control (dose: 3.13 mg/kg/injection, schedule: Q07DX003 (ip), vehicle: saline); 10 % of control under setting [4].

With `Cc1cc2c(=O)cc(-c3ccccc3Cl)oc2c(C(=O)O)c1C`, the T/C was 56 % of control (dose: 100.0 mg/kg/injection, schedule: Q07DX002 (ip), vehicle: sodium bicarbonate); 35 % of control (dose: 200.0 mg/kg/injection, schedule: Q07DX002 (ip), vehicle: sodium bicarbonate); 40 % of control (dose: 400.0 mg/kg/injection, schedule: Q07DX002 (ip), vehicle: sodium bicarbonate).

In the case of `O=[N+]([O-])O.O=[N+]([O-])O.[NH-]C1CCCCC1[NH-].[Pt+2]` (centres undefined), the T/C runs as follows: (dose: 0.5 mg/kg/injection, schedule: Q07DX002 (ip), vehicle: dextrose) 101 % of control; (dose: 2.0 mg/kg/injection, schedule: Q07DX002 (ip), vehicle: dextrose) 62 % of control and 81 % of control; (dose: 4.0 mg/kg/injection, schedule: Q07DX002 (ip), vehicle: dextrose) 62 % of control and 81 % of control; (dose: 8.0 mg/kg/injection, schedule: Q07DX002 (ip), vehicle: dextrose) 27 % of control and 33 % of control.

With `CCN(CC)CCCNc1nccc2c(C)c3[nH]c4ccncc4c3cc12`, the T/C by setting is: (dose: 0.75 mg/kg/injection, schedule: Q07DX002 (ip), vehicle: acid diluted with saline) 76 % of control; (dose: 0.75 mg/kg/injection, schedule: Q07DX002 (ip), vehicle: other) 120 % of control; (dose: 1.25 mg/kg/injection, schedule: Q07DX002 (ip), vehicle: other) 106 % of control; (dose: 1.5 mg/kg/injection, schedule: Q07DX002 (ip), vehicle: acid diluted with saline) 100 % of control; (dose: 1.5 mg/kg/injection, schedule: Q07DX002 (ip), vehicle: other) 108 % of control; (dose: 3.0 mg/kg/injection, schedule: Q07DX002 (ip), vehicle: acid diluted with saline) 46 % of control. The T/C (dose: 3.0 mg/kg/injection, schedule: Q07DX002 (ip), vehicle: other) was 123 % of control; the T/C (dose: 6.0 mg/kg/injection, schedule: Q07DX002 (ip), vehicle: acid diluted with saline) is 69 % of control; the T/C (dose: 6.0 mg/kg/injection, schedule: Q07DX002 (ip), vehicle: other) was 66 % of control; the T/C (dose: 12.0 mg/kg/injection, schedule: Q07DX002 (ip), vehicle: acid diluted with saline) was 51 % of control; the T/C (dose: 12.0 mg/kg/injection, schedule: Q07DX002 (ip), vehicle: other) was 26 % of control; the T/C (dose: 20.0 mg/kg/injection, schedule: Q07DX002 (ip), vehicle: other) was 41 % of control.

In the case of `Cc1cc(O)c(O)c(Oc2cc(C)cc(O)c2O)c1`, the T/C reads like this: (dose: 0.35 mg/kg/injection, schedule: Q07DX002 (ip), vehicle: saline) 96 % of control; (dose: 0.7 mg/kg/injection, schedule: Q07DX002 (ip), vehicle: saline) 78 % of control; (dose: 1.4 mg/kg/injection, schedule: Q07DX002 (ip), vehicle: saline) 77 % of control.

Regarding `Nc1ccc2nc3c4ccccc4c(O)n3nc2c1`, the T/C under setting [2] is 83 % of control; the T/C under setting [3] was 101 % of control; the T/C under setting [5] is 94 % of control; the T/C (dose: 400.0 mg/kg/injection, schedule: Q07DX002 (ip), vehicle: saline with Tween-80) was 98 % of control.

As to `CC(C)(C)C1CCCCC1`, the T/C is 100 % of control (dose: 12.5 mg/kg/injection, schedule: Q07DX002 (ip), vehicle: Klucel (hydroxypropylcellulose) (HPC)); 124 % of control (dose: 25.0 mg/kg/injection, schedule: Q07DX002 (ip), vehicle: Klucel (hydroxypropylcellulose) (HPC)); 104 % of control (dose: 100.0 mg/kg/injection, schedule: Q07DX002 (ip), vehicle: Klucel (hydroxypropylcellulose) (HPC)); 77 % of control (dose: 200.0 mg/kg/injection, schedule: Q07DX002 (ip), vehicle: Klucel (hydroxypropylcellulose) (HPC)).
